Laboratory results as given in patent publication EP3888661A1, “COMPOSITIONS COMPRISING 2 -FUCOSYLLACTOSE TO PREVENT VIRAL INFECTIONS” (FrieslandCampina Nederland B.V., priority 2020, dated 2021).

Assays:
[1] = tested on: anaerobic microbiota from human origin; test: TIM-2 in vitro fermentation model of the human colon, SCFA/acetate production
From the text: The in vitro fermentation studies were done using the TIM-2 model. This is a validated, dynamic, computer-controlled model that simulates the human colon, mimicking body temperature, lumen pH, absorption of water and microbial metabolites through a semipermeable membrane inside the model, mixing and transporting the intestinal contents with peristaltic movements, using an anaerobic microbiota from human origin, it corresponds basically to the model as described in Minekus, M., etal. Appl. Microbiol. Biotechnol. 1999 53, 108-114. doi: 10.1007/ s002530051622 and Kortman et al., Frontiers in Microbiology 2016, 6, 1481. Characteristics of the movements of the contents in the TIM-2 system was simulated using an increase of the pH and peristaltic movements of the contents in the system using peristaltic pumps as described in Minekus, M (1998. Development and validation of a dynamic model of the gastrointestinal tract. PhD thesis, Delft University of Technology, The Netherlands).
SCFA analysis was performed at Brightlabs B.V., Venlo, The Netherlands), according to (Sáyago-Ayerdi SG, et al. Food Research International, E-pub date 13 December 2017; Sayago Ayerdi et al Food Research International 118 (2019) 89-95). […]
Samples (1 mL) were taken for Short Chain Fatty Acid (SCFA) analysis after 1, 2, 4, 6, 8 and 24 h after test product insertion; cumulative absolute amounts of SCFA were determined. […]

[2] = cited from earlier work

In the case of `C[C@@H]1O[C@@H](O[C@H]2[C@H](O[C@H]3[C@H](O)[C@@H](O)C(O)O[C@@H]3CO)O[C@H](CO)[C@H](O)[C@@H]2O)[C@@H](O)[C@H](O)[C@@H]1O` (stereo partly drawn) [2'-FL, 2'-Fucosyllactose], the acetate production ([1]; 7.5 gram test product as single shot, cumulative acetate produced between 8 and 24 hours after insertion, representing the distal colon, pooled fecal microbiota of 20 healthy subjects) is listed as 17 mmol, the acetate production ([1]; fecal microbiota samples of lean and of obese subjects in the TIM-2 model system) is listed as “An increase in the acetate production was observed” and the “daily dosage tested as safe” value [2] is listed as 20 g.
